Measured values reported in paper PMC7332124, “Design, One Pot Synthesis and Molecular Docking Studies of Substituted-1H-Pyrido[2,1-b] Quinazolines as Apoptosis-Inducing Anticancer Agents” (Asian Pacific Journal of Cancer Prevention : APJCP, 2020).
“Also recorded” adds a separate entry of the source.

How the values were obtained:
[1] = tested on: HCT-15; assay: MTT cytotoxicity assay; type: cell-based, human; details: Homo sapiens, HCT-15 colon cancer, 72 h, read-out: In vitro Inhibitory Concentration (IC50)
Experimental: (§1) Various cancer cells were used to screen anticancer activity of newly synthesized compounds. Lung (A549 and NCI-H460), colon (HCT-15 and HT-29), prostate (DU-145) cancer cells maintained in RPMI-1640 media while normal lung fibroblasts cell line (HFL-1) were maintained in F-12 k medium supplemented with 10% fetal bovine serum (FBS) with 1% antibiotic-antimycotic solution (Sigma). Cells were maintained in 5% CO2 with 98% relative humidity at 37 °C in incubator. When 80-90% of confluency is reached, they were sub-cultured using 0.25% trypsin/1 mM EDTA solution for further passage. The compounds in this series were dissolved in DMSO (1 %) to prepare the stock solution of 10 mM. Further dilutions were made accordingly with respective media to obtain the required concentrations.
(§2) MTT assay measures the reduction of MTT (3-(4,5-dimethylthiazol- 2-yl)-2,5-diphenyl tetrazolium bromide) by mitochondrial succinate dehydrogenase enzyme to insoluble formazan crystals. Since reduction of MTT occurs only in metabolically active cells, the level of activity is the measure of the viability of the cells.(Pordeli et al., 2017). Briefly, cells were plated in 96-well plates at a density of 3,000 to 6,000 cells per well in 100 µl of complete medium and allowed to grow overnight. Then the cells were treated with different concentrations of the synthesized compounds and incubated for 72 h. After the treatment, 100 µl of MTT (0.5 mg/ml) was added and incubated at 37 °C for 4 h. Then MTT reagent was aspirated and formazan crystals formed were dissolved by the addition of 200 µL of DMSO for 20 min at 37 °C. The formazan product quantity was measured by using a spectrophotometric microtiter plate reader (Spectra Max, M4 Molecular devices, USA) at 570 nm wavelength(Nekkanti et al., 2017).

[2] = tested on: NCI-H460; assay: MTT cytotoxicity assay; type: cell-based, human; details: Homo sapiens, NCI-H460 lung carcinoma, 72 h, read-out: In vitro Inhibitory Concentration (IC50)
Experimental: as §1, §2

[3] = tested on: A549 cells; assay: DAPI nuclear staining; type: cell-based, human; details: 0.5, 1, 2.5 and 5 µM, 72 h
Experimental: After treatment with compound 4q for 72 h, lung cancer cell line A549 were washed with PBS then fixed with 4% formaldehyde for 10 min and then permeabilized with 0.1% Tween 20 followed by staining with 1 µM DAPI. Control and treated cells were observed under fluorescence microscope with excitation at 359 nm and emission at 461 nm using DAPI filter at 200X magnification (Sgorbati et al., 1986).

[4] = tested on: A549 cells; assay: Clonogenic growth inhibition assay; type: cell-based, human; details: 1, 2.5 and 5 µM, 7 days
Experimental: The assay mainly tests ability to undergo “unlimited” division by every cell in the population and the hindrance of colony formation by compound 4i was determined in exponentially growing A549 cells by culturing 100-150 cells per well. […] Then, formed colonies were fixed with glutaraldehyde (6.0% v/v), stained with crystal violet (0.5% w/v). The treatment clearly […] the capacity to produce colonies in lung cancer cell population in a concentration dependent manner. […] The total colonies were counted by molecular imaging system Vilber Fusion Fx software and the values were represented as a percent colony forming ability.
Lung cancer cells A549 at exponentially phase were seeded into 12-well culture plates and kept overnight and treated with the compound 4q. Every 2 days the medium was replaced with the fresh medium. After 7 days of incubation, the colonies formed were fixed and stained with 1 % crystal violet in methanol for 3 h. The number of stained colonies were counted under chemdoc imaging system (Vilber Fusion Fx, France). Colony formation was calculated as a percentage to untreated control cultures (Moghaddam et al., 2009).

[5] = tested on: A549 cells; assay: Annexin V-FITC/PI apoptosis assay (flow cytometry); type: cell-based, human; details: 72 h
Excerpt: A fundamental part of apoptosis is the flipping of phosphatidyl serine (PS) from the inner surface to the outer surface of the plasma layer of the cells. PS is a component of phospholipid usually located on the cytoplasmic surface of the cell layer in viable cells. When the apoptotic condition is initiated in a cell, PS is no more restricted to the cytosolic region and will flip on the surface of the cell. Translocation of PS is considered to be a hall mark of apoptosis (Zhu et al., 2015). To experimentally address this phenomenon briefly, 1 X 10^5 cells were seeded in a 12-well plate and treated with different concentration of compound 4q and incubated for 72 h. Then untreated and treated cells were harvested and the cells were processed with annexin V-FITC and Propidium Iodide (PI) staining (Bio Legend), according to the manufacturer’s instructions. Further, early/late apoptosis and necrosis parameters were analyzed with quadrant statistics on propidium iodide-negative cells, fluorescein positive cells and propidium iodide-positive cells, respectively.

C1=CC2=NC3=C(CCCC3)C(c3cn(Cc4ccccc4)c4ccccc34)N2C=C1 (stereo not shown) [Compound 4i, 11-(1-benzyl-1H-indol-3-yl)-2,3,4, 11-tetrahydro-1H-pyrido [2,1-b] quinazoline]
IC50 [1]: 11.3 ± 0.25 µM
IC50 [2]: 5.53 ± 0.49 µM
nuclear changes by DAPI staining [3]: chromatin condensation, nuclear fragmentation, and horse shoe shaped nucleus
colony formation [4]: Reductions in the number of colonies; also recorded: strong anti-clonogenic effect
percentage of early apoptotic cells (EA; AV+/PI-) ([5]; 5 µM, control 4.08 %): 26.90%
apoptosis induction (Annexin V-FITC/PI) ([5]; 0.5 to 5 µM): significant early apoptosis
melting point: 185 to 186 °C
